Values quoted from earlier work in patent US20150132345A1, “NITRIC OXIDE-SEQUESTERING TOPICAL FORMULATIONS” (priority 2011, published 2015).

Columns and labels:
Conditions in all cases: multiple 30 minutes treatments of 160 ppm nitric oxide
Escherichia coli = system: Escherichia coli
Staphylococcus aureus = system: Staphylococcus aureus
Pseudomonas aeruginosa = system: Pseudomonas aeruginosa

## [N]=O [nitric oxide]
Escherichia coli
  decrease in the bacterial load: > 5 log 10 colony forming unit per milliliter (CFU/ml)
Staphylococcus aureus
  decrease in the bacterial load: > 5 log 10 colony forming unit per milliliter (CFU/ml)
Pseudomonas aeruginosa
  decrease in the bacterial load: > 5 log 10 colony forming unit per milliliter (CFU/ml)
